In paper PMC8232621, “Antimicrobial Activity of a Library of Thioxanthones and Their Potential as Efflux Pump Inhibitors” (Pharmaceuticals, 2021):
Like-named read-outs stand apart in the source and are kept apart here.

Experiments:
[1] = tested on: P-gp; parameters: method as in PMID 22044878; details: cited from earlier work
[2] = Cytotoxicity in NIH/3T3 cell line (MTT assay); format: cell-based; details: mouse, read-out: IC50 (µM) ± SD, cytotoxicity
Experimental: Before each cytotoxicity assay using this cell line, cells were seeded in untreated 96-well flat-bottom microtiter plates, following a 4-hour incubation period in a humidified atmosphere (5% CO2, 95% air) at 37 °C [47]. […] Prior to the assay, the cells were seeded for 4 h using 1 × 10^4 cells/well. […] The plates were incubated for 24 h, after which a solution of MTT in PBS was added to each well and incubated for another 4 h. After this, 100 μL of SDS (10% in a 0.01 M HCl solution) was added to each well and incubated overnight at 37 °C. Doxorubicin was used as a positive control. Cell growth was determined in quadruplicate by measuring OD at λ = 540 nm (reference 630 nm) in a Multiscan EX ELISA reader (Thermo Labsystems, Cheshire, WA, USA). […] (2) 100−ODsample−ODmedium control/ODcell control−ODmedium control×100 […]

[3] = tested on: E. faecalis B3/101; assay: Synergy with vancomycin (antibiotic MIC in presence of compound); format: cell-based, Enterococcus faecalis
From the text: The referred library of thioxanthones was initially tested for their antimicrobial activity against six bacterial strains: the Gram-negative Escherichia coli ATCC 25922, Pseudomonas aeruginosa ATCC 27853 and Salmonella enterica serovar Typhimurium SL1344 (SE03), with the acrA gene deleted, and the Gram-positive Staphylococcus aureus ATCC 29213, Enterococcus faecalis ATCC 29212 and the methicillin and ofloxacin-resistant clinical isolate S. aureus 272123. For the synergy assay, two clinically relevant isolates were used: the extended-spectrum β-lactamase (ESBL)-producing E. coli SA/2 [23] and the vancomycin-resistant E. faecalis (VRE) B3/101 [23]. The antibiotics used were cefotaxime (CTX) and vancomycin (VAN), respectively.
The combined effect of the compounds and clinically relevant antimicrobial drugs was evaluated by determining the antibiotic’s MIC in the presence of each compound. […] The antibiotic tested was serially diluted, whereas the concentration of each compound was kept fixed. In the case of compound 12, the concentration used was 8 µg/mL. For all other compounds, the concentration used was 64 µg/mL. Antibiotic MICs were determined as described above.

[4] = tested on: P-glycoprotein (P-gp); assay: Flow cytometry analysis of P-glycoprotein expression in Caco-2 cells (UIC2-PE antibody); format: cell-based, human; details: 20 µM, 24 h
Experimental: However, the ability of compounds 9–17 to interfere with the fluorescence of the UIC2-PE antibody was assessed first. For this purpose, Caco-2 cells were incubated for 24 h, in the presence or absence of thioxanthone derivatives (20 μM), and subsequently analysed, by flow cytometry, as described for the P-gp expression assay. A remarkable increase in the intracellular fluorescence of cells exposed to compounds 10–13 and 15–17 was observed, making it impossible to assess the effect of these thioxanthone derivatives on P-gp expression. In fact, compounds 15–17 had previously been reported as fluorescent compounds [15] and this characteristic limited some of the studies reported herein. […] Briefly, Caco-2 cells were seeded in 24-well plates at a density of 60,000 cells/cm^2 and exposed, three days after seeding, to a non-cytotoxic concentration of the tested compounds (20 µM). […] The cells were then washed twice with HBSS (+/+), centrifuged (300 g for 5 min, at 4 °C) and kept on ice until analysis. […] The parameter used for comparison was the mean fluorescence intensity (MFI), calculated as a percentage of control cells (0 μM). The cells autofluorescence (unlabelled cells with or without exposure to the tested compounds) was also evaluated to eliminate its potential contribution to the analysed fluorescence signals. […]

[5] = tested on: Caco-2 cells; assay: Cytotoxicity in Caco-2 cells, sulforhodamine B (SRB) binding assay; format: cell-based, human; details: 24 h after exposure
Experimental: Caco-2 cells were routinely cultured in 75 cm^2 flasks using DMEM with 4.5 g/L glucose supplemented with 10% FBS, 1% NEAA and 1% antibiotic. Cells were maintained at 37 °C, in a 5% CO2 and 95% air atmosphere, and the cell culture medium was changed every 2−3 days. Cultures were passaged weekly by trypsinization (0.25% trypsin/1 mM EDTA). In all experiments, the cells were seeded at a density of 60,000 cells/cm^2 and used three days after seeding, when confluence was reached. The cells used in all experiments were taken between the 55th and 64th passages.
The compounds’ (0−20 μM) cytotoxicity was evaluated by the neutral red (NR) uptake and Sulforhodamine B (SRB) binding assays, 24 h after exposure. Caco-2 cells were seeded onto 96-well plates at a density of 60,000 cells/cm^2 and exposed, after reaching confluence (three days after seeding), to the compounds (0–20 μM), in a fresh cell culture medium. Triton™ X-100 (0.1%) was used as a positive control.
The SRB binding assay is based on the pH-dependent binding of SRB to basic amino acids of cellular proteins under mild acidic conditions. […] The bounded SRB was then extracted with a Tris base solution (10 mM, pH 10.5) and the absorbance was measured, at 540 nm, in a multi-well plate reader (PowerWaveX BioTek Instruments, VT, USA). […]

In the case of `CCCOc1ccc(NCCN(CC)CC)c2c(=O)c3ccccc3sc12` [Compound 2], the “type of P-gp inhibition” value [1] is given as “competitive inhibitor”.

Compound `CCCOc1ccc(N2CCCCC2)c2c(=O)c3ccccc3sc12` [Compound 3] has an IC50 at 24 h [2] greater than 100 µM.

With `CCCOc1ccc(Nc2nc(C)cc(C)n2)c2c(=O)c3ccccc3sc12` [Compound 8, 1-[(4,6-Dimethylpyrimidin-2-yl)amino]-4-propoxy-9H-thioxanthen-9-one] the IC50 at 24 h ([2]; NIH/3T3 mouse fibroblast cells) was greater than 100 µM.

With `CCCOc1ccc(N2CCNC(=O)C2)c2c(=O)c3ccccc3sc12` [Compound 9, 4-(9-Oxo-4-propoxy-9H-thioxanthen-1-yl)piperazin-2-one] the “decrease of the MIC of VAN” value [3] was 16 fold and the “P-gp expression levels (control cells 100%)” value [4] was “no significant differences”.

Work on `CCCOc1ccc(NS(=O)(=O)c2ccc(C(=O)O)cc2)c2c(=O)c3ccccc3sc12` [Compound 12, 4-[N-(9-Oxo-4-propoxy-9H-thioxanthen-1-yl)sulfamoyl]benzoic acid] yielded an IC50 at 24 h ([2]; NIH/3T3 mouse fibroblast cells) of 64.5 ± 4.54 µM.

Compound `CCCOc1ccc(NS(=O)(=O)c2ccc(N)cc2)c2c(=O)c3ccccc3sc12` [Compound 13, 4-Amino-N-(9-oxo-4-propoxy-9H-thioxanthen-1-yl)benzenesulfonamide] has an IC50 at 24 h ([2]; NIH/3T3 mouse fibroblast cells) greater than 100 µM.

With `CCCOc1ccc(Br)c2c(=O)c3ccccc3sc12` [Compound 14, 1-Bromo-4-propoxy-9H-thioxanthen-9-one] the “P-gp expression levels (control cells 100%)” value [4] was 83%.

In the case of `CCCOc1ccc2nc(NCc3ccccc3Cl)nc3c2c1Sc1ccccc1-3` [Compound 17], the IC50 at 24 h ([2]; NIH/3T3 mouse fibroblast cells) is reported as greater than 100 µM, the “SRB binding vs control cells” value ([5]; 10 µM) is reported as “no significant differences” and the “SRB binding (relative to control cells)” value ([5]; 20 µM) is reported as 105.8%.
